Three molecules from patent US12691182B2, “Maytansinoid derivatives, conjugates thereof, and methods of use” (priority 2016, dated 2026) can be followed below.

A word on the IC50: it is the concentration at which inhibition is half-maximal. Low values mean inhibition by little substance, high ones a need for much substance.

Holding throughout (type): cell-based
The test system of one assay is C4-2 (STEAP2+) cells. As to the kind of experiment: In vitro cytotoxicity assay, C4-2 cells (CellTiter-Glo viability). The conditions noted are these: naked payload, 5 days; for C4-2 % kill: % kill reported for the highest dose; for IC50: CellTiter-Glo. How it is done: (§1) In this Example, the ability of various antibody-drug conjugates and naked payloads to kill antigen-expressing tumor cells in vitro was assessed.
C4-2 (STEAP2+) cells were seeded in 96 well plates at 4000 cells per well in complete growth media and grown overnight. For cell viability curves, serially diluted conjugates or naked payloads were added to the cells at final concentrations ranging from 100 nM to 5 pM and incubated for 5 days. To measure viability, cells were incubated with CellTiter-Glo reagents for 5 minutes and luminescence was determined on a Victor plate reader (PerkinElmer). IC50 values were determined from a four-parameter logistic equation over a 10-point response curve (GraphPad Prism).
(§2) All IC50s are expressed in nM concentration and % kill is reported for the highest dose. All curves and IC50 values are corrected for payload equivalents. The plot of % Cell Viability vs. Log 10 [M]
(In general: In ATP-based viability assays light output follows the ATP content of the culture.)

A further assay deals with Ovcar3 (Muc16+) cells. The assay is described as follows: In vitro cytotoxicity assay, Ovcar3 cells (CCK8 viability). As to conditions: naked payload, 3 days; for Ovcar3 % kill: % kill reported for the highest dose; for IC50: CCK8. The protocol:
as §1
(§3) Ovcar3 (Muc16+) cells were seeded in 96 well plates at 3000 cells per well in complete growth media and grown overnight. For cell viability curves, serially diluted conjugates or naked payloads were added to the cells at final concentrations ranging from 100 nM to 5 pM and incubated for 3 days. To measure viability, cells were incubated with CCK8 (Dojindo) for the final 2 hours and the absorbance at 450 nm (OD450) was determined on a Victor (Perkin Elmer). Background OD450 levels determined from digitonin (40 nM) treated cells were subtracted from all wells and viability is expressed as a percentage of the untreated controls. IC50 values were determined from a four-parameter logistic equation over a 10-point response curve (GraphPad Prism). […] All curves and IC50 values are corrected for payload equivalents. The plot of % Cell Viability vs. Log 10 [M]
as §2

The test system of a further assay is SKBR3 (Her2+) cells. As to the kind of experiment: In vitro cytotoxicity assay, SKBR3 cells (CCK8 viability). The conditions noted are these: naked payload, SKBr-3 cells, 3 days; for SKBr-3 % kill: % kill reported for the highest dose; for IC50: CCK8. How it is done:
as §1
as §3, with “SKBR3 (Her2+)” for “Ovcar3 (Muc16+)”, “8000” for “3000”
as §2

As for `COc1cc2cc(c1Cl)N(C)C(=O)CC(OC(=O)Nc1ccc(N)c(Cl)c1)C1(C)OC1C(C)C1CC(O)(NC(=O)O1)C(OC)C=CC=C(C)C2` (stereo not drawn) [Compound 30a, Maytan-3-O-carbamoyl-N-(3-chloro-4-amino)benzene], in the assay with C4-2 (STEAP2+) cells, the C4-2 % kill entry is recorded as “***** (***** indicates % kill greater than, or equal to, 99)” and the IC50 lay within 1 to 10 nM. In the assay on Ovcar3 (Muc16+) cells, the Ovcar3 % kill entry is “*** (*** indicates % kill greater than, or equal to, 90 and less than 95)”; the concentration for half-maximal inhibition (IC50) was in the range of 0.1 to 1 nM. Besides, in the assay on SKBR3 (Her2+) cells, the SKBr-3 % kill result was “**** (**** indicates % kill greater than, or equal to, 95 and less than 99)”; the IC50 lay within 0.1 to 1 nM.

Regarding `COc1cc2cc(c1Cl)N(C)C(=O)C[C@H](OC(=O)Nc1ccc(N)cc1Br)[C@]1(C)O[C@H]1[C@H](C)[C@@H]1C[C@@](O)(NC(=O)O1)[C@H](OC)/C=C/C=C(\C)C2` [Compound 30m, Maytan-3-O-carbamoyl-N-(2-bromo-4-amino)benzene], in the assay on C4-2 (STEAP2+) cells, the C4-2 % kill entry was “***** (***** indicates % kill greater than, or equal to, 99)” and the half-maximal inhibitory concentration (IC50) fell in the range of 0.01 to 0.1 nM. Also, in the assay with Ovcar3 (Muc16+) cells, the Ovcar3 % kill entry is “** (** indicates % kill greater than, or equal to, 85 and less than 90)”; the IC50 is 0.001 to 0.01 nM. Also, in the assay with SKBR3 (Her2+) cells, the SKBr-3 % kill result is recorded as “***** (***** indicates % kill greater than, or equal to, 99)” and the IC50 lay within 0.01 to 0.1 nM.

For `COc1cc2cc(c1Cl)N(C)C(=O)CC(OC(=O)Nc1ccc(N)cc1Cl)C1(C)OC1C(C)C1CC(O)(NC(=O)O1)C(OC)C=CC=C(C)C2` (stereo not drawn) [Compound 17, Maytan-3-O-carbamoyl-N-(2-chloro-4-amino)benzene], in the assay with C4-2 (STEAP2+) cells, the C4-2 % kill result is “**** (**** indicates % kill greater than, or equal to, 95 and less than 99)”; the IC50 was 0.1 to 1 nM. In the assay with Ovcar3 (Muc16+) cells, the Ovcar3 % kill result is “*** (*** indicates % kill greater than, or equal to, 90 and less than 95)”; the IC50 was in the range of 0.001 to 0.01 nM. Moreover, in the assay on SKBR3 (Her2+) cells, the SKBr-3 % kill entry is given as “***** (***** indicates % kill greater than, or equal to, 99)” and the IC50 lay within 0.01 to 0.1 nM.
